Earlier results on two molecules are cited in patent US20140088140A1 (TEVA PHARMACEUTICAL INDUSTRIES, LTD., priority 2012, published 2014).

The subject of data set [1] is genes related to antigen presentation and corresponding inflammatory pathways. To be noted: mainly via the NFkB pathway.
The conditions of data set [2]: in vivo.
The subject of the next data set is Th1 / Th2 T helper cells. To be noted: animal studies.
For another data set, the system named is Multiple Sclerosis. To be noted: two phase III trials.
In data set [3] the test system is Huntington's disease patients. The settings on record: 45 mg or 90 mg daily for 6 months.

The structures appear in SMILES notation.

As to `CCN(C(=O)c1c(O)c2c(Cl)cccc2n(C)c1=O)c1ccccc1` [laquinimod], the “expression of genes related to antigen presentation and inflammatory pathways” value in data set [1] is on record as “induced suppression”. For the same molecule, in data set [2], the oral bioavailability entry is “high oral bioavailability”. In addition, in the data set on Th1 / Th2 T helper cells, the “Th1 to Th2 shift” value is listed as “shift with an anti-inflammatory profile”. Moreover, the “safety and tolerability profile” value with Multiple Sclerosis was “favorable safety and tolerability profile”.

Consider `CCCN1CCC(c2cccc(S(C)(=O)=O)c2)CC1` [pridopidine, 4-[3-(methylsulfonyl)phenyl]-1-propyl-piperidine], for which the “symptomatic relief incl. hand movements, gait and balance” value in the data set with patients with HD was “significant symptomatic relief”. For the same molecule, in data set [3], the “tertiary endpoint UHDRS-TMS (changes in motor function) and individual mMS items (gait, dysarthria)” value is on record as “statistically significant effect of treatment”.
